Data: ChEMBL document CHEMBL4417631, “Oral peptide inhibitors of interleukin-23 receptor and their use to treat inflammatory bowel diseases” (2017)
Activity calls are given as the source filed them. No cut-off for these calls is given here.

How the values were obtained:
[1] = AUC in rat small intestinal mucosa at 20 mg/kg, po; format: ADME, organism-based, Mucosa of small intestine; settings: in vivo
[2] = target: T1, Interleukin-23 receptor (Homo sapiens, UniProt Q5VWK5); experiment: Inhibition of interleukin-23 receptor in human DB cells assessed as reduction in IL-23-stimulated STAT3 phosphorylation incubated for 30 mins by HTRF assay; format: cell-based
T1 sequence (Q5VWK5 whole entry): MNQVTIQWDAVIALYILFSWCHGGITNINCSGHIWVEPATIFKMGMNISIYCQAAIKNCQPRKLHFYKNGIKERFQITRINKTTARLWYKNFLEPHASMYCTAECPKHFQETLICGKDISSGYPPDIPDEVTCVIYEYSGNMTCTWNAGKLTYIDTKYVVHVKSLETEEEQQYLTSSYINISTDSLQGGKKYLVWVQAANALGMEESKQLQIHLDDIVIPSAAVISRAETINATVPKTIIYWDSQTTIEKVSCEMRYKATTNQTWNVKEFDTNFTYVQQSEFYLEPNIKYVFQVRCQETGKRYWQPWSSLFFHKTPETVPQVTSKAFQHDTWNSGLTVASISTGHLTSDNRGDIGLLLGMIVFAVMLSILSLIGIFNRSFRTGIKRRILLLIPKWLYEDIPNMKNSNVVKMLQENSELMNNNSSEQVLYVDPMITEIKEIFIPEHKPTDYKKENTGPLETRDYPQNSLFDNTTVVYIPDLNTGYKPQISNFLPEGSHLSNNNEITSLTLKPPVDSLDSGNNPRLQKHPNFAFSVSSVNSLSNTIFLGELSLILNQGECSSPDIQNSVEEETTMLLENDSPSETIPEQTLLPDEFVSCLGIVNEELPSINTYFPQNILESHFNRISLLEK

[3] = Inhibition of interleukin-23 binding to cynomolgus monkey interleukin-23 receptor incubated for 2 hrs by competitive binding ELISA; parameters: species or system Macaca fascicularis
[4] = Half life in human intestinal fluid at 20 uM by LC-MS/MS analysis; format: ADME
[5] = Binding affinity to human FC-tagged human recombinant interleukin-12 receptor beta1/human FC-tagged human interleukin-23 receptor by SPR assay
[6] = tested on: Rattus norvegicus; experiment: Anti-colitis activity in Sprague-Dawley rat model of TNBS-induced colitis assessed as improvement in gross pathology scores at 20 mg/kg, po dosed 3 times per day for 8 days starting 24 hrs before TNBS injection; format: functional, organism-based
[7] = tested on: Rattus norvegicus; experiment: Anti-colitis activity in Sprague-Dawley rat model of TNBS-induced colitis assessed as reduction in colon weight/colon length ratio at 20 mg/kg, po dosed 3 times per day for 8 days starting 24 hrs before TNBS injection; format: functional, organism-based
[8] = Ratio of IC50 for inhibition of interleukin-23 receptor in rat splenocytes assessed as reduction in IL23-stimulated IL-17A production incubated for 3 hrs by ELISA to plasma concentration in Sprague-Dawley rat model of TNBS-induced colitis
[9] = target: T1, Interleukin-23 receptor; experiment: Binding affinity to human FC-tagged human interleukin-23 receptor by SPR assay
[10] = target: T2, Interleukin-12 receptor subunit beta-1 (Homo sapiens, UniProt P42701); experiment: Binding affinity to human recombinant interleukin-12 receptor beta1 by SPR assay
[11] = tested on: Rattus norvegicus; experiment: Anti-colitis activity in Sprague-Dawley rat model of TNBS-induced colitis assessed as reduction in colon wall thickness at 160 mg/kg/day, po starting 24 hrs before TNBS injection; format: functional, organism-based
[12] = target: T1, Interleukin-23 receptor; experiment: Binding affinity to human FC-tagged human interleukin-23 receptor assessed as dissociation rate constant by SPR assay
[13] = tested on: Rattus norvegicus; experiment: Anti-colitis activity in Sprague-Dawley rat model of TNBS-induced colitis assessed as induction of healing at necrosis sites in colon at 20 mg/kg, po dosed 3 times per day for 8 days starting 24 hrs before TNBS injection by H and E staining based histological assay; format: functional, organism-based
[14] = tested on: Rattus norvegicus; experiment: Anti-colitis activity in Sprague-Dawley rat model of TNBS-induced colitis assessed as reduction in mucosal necrosis at 160 mg/kg/day, po starting 24 hrs before TNBS injection; format: functional, organism-based
[15] = target: T1, Interleukin-23 receptor; experiment: Inhibition of interleukin-23 binding to human interleukin-23 receptor incubated for 2 hrs by competitive binding ELISA
[16] = Binding affinity to human FC-tagged human recombinant interleukin-12 receptor beta1/human FC-tagged human interleukin-23 receptor assessed as dissociation rate constant by SPR assay
[17] = target: T1, Interleukin-23 receptor; experiment: Inhibition of interleukin-23 receptor in human natural killer cells assessed as reduction in IL23/IL18-induced IFNgamma production incubated for 20 to 24 hrs by ELISA; format: cell-based
[18] = target: T3, Interleukin-23 receptor (Homo sapiens) (UniProt Q5VWK5); experiment: Binding affinity to human FC-tagged human interleukin-23 receptor assessed as association constant by SPR assay
T3 sequence (whole entry): T1 sequence (Q5VWK5 whole entry)

[19] = tested on: PBMC; experiment: Inhibition of IL12-stimulated IFNgamma production in PHA-activated human PBMC by ELISA; format: functional, cell-based
[20] = Half life in simulated intestinal fluid at 20 uM by LC-MS/MS analysis; format: ADME
[21] = species on record: Homo sapiens; experiment: Binding affinity to human FC-tagged human recombinant interleukin-12 receptor beta1/human FC-tagged human interleukin-23 receptor assessed as association constant by SPR assay
[22] = AUC in rat plasma at 20 mg/kg, po; format: ADME, organism-based
[23] = target: T2, Interleukin-12 receptor subunit beta-1; experiment: Binding affinity to human FC-tagged human recombinant interleukin-12 receptor beta1 up to […] by SPR assay
[24] = target: T1, Interleukin-23 receptor; experiment: Binding affinity to human recombinant interleukin-23 receptor by SPR assay
[25] = Drug recovery in rat feces at 20 mg/kg, po; format: ADME, organism-based; settings: read-out: Drug recovery
[26] = Inhibition of interleukin-6 binding to human interleukin-6 receptor incubated for 2 hrs by competitive binding ELISA
[27] = tested on: Rattus norvegicus; experiment: Anti-colitis activity in Sprague-Dawley rat model of TNBS-induced colitis assessed as reduction in inflammation at 160 mg/kg/day, po starting 24 hrs before TNBS injection; format: functional, organism-based
[28] = Inhibition of interleukin-23 receptor in rat splenocytes assessed as reduction in IL23-stimulated IL-17A production incubated for 3 hrs by ELISA; format: cell-based
[29] = AUC in rat colon mucosa at 20 mg/kg, po; format: ADME, organism-based, Colonic mucosa; settings: in vivo
[30] = Half life in simulated gastric fluid at 20 uM by LC-MS/MS analysis; format: ADME
[31] = tested on: Rattus norvegicus; experiment: Anti-colitis activity in Sprague-Dawley rat model of TNBS-induced colitis assessed as reduction in inflammation at 20 mg/kg, po dosed 3 times per day for 8 days starting 24 hrs before TNBS injection; format: functional, organism-based
[32] = Ratio of IC50 for inhibition of interleukin-23 binding to rat interleukin-23 receptor incubated for 2 hrs by competitive binding ELISA to plasma concentration in Sprague-Dawley rat model of TNBS-induced colitis
[33] = tested on: Rattus norvegicus; experiment: Anti-colitis activity in Sprague-Dawley rat model of TNBS-induced colitis assessed as improvement in histological scores at 160 mg/kg/day, po starting 24 hrs before TNBS injection by H and E staining based histological assay; format: functional, organism-based
[34] = Half life in DTT at 50 uM up up to 120 mins by reverse phase HPLC and UV detection based assay; format: physicochemical
[35] = Inhibition of interleukin-23 binding to rat interleukin-23 receptor incubated for 2 hrs by competitive binding ELISA
[36] = tested on: Rattus norvegicus; experiment: Anti-colitis activity in Sprague-Dawley rat model of TNBS-induced colitis assessed as reduction in localized lesions in mucosa and sub-mucosal regions at 20 mg/kg, po dosed 3 times per day for 8 days starting 24 hrs before TNBS injection by H and E staining based histological assay; format: functional, organism-based

CC(=O)N[C@H]1CCSC[C@@H](C(=O)N[C@@H](Cc2ccc(OCCN)cc2)C(=O)N[C@@H](Cc2c[nH]c3ccccc23)C(=O)N[C@@](C)(CCCCN)C(=O)N[C@@H](CCC(=O)O)C(=O)N[C@@H](CC(N)=O)C(=O)NCC(N)=O)NC(=O)[C@H](CCC(N)=O)NC(=O)[C@H](Cc2c[nH]c3ccccc23)NC(=O)[C@H]([C@@H](C)O)NC(=O)[C@H](CCC(N)=O)NC1=O
AUC [1]: 355 µg·h/g
IC50 [2]: < 0.01 µM
IC50 [3]: 0.007 µM
half-life at 20 µM [4]: > 24 h
Kd [5]: 0.00256 µM
Activity [6]: Active
Activity [7]: Active
Ratio [8]: <2
Kd [9]: 0.00242 µM
Kd [10]: Not Active
Activity [11]: Active
Kd [12]: 0.033 s⁻¹
Activity [13]: Active
Activity [14]: Active
IC50 [15]: 0.01 to 0.025 µM
Kd [16]: 0.041 s⁻¹
IC50 [17]: 0.025 to 0.027 µM
Ka [18]: 1.37 ×10⁷ /M/s
IC50 [19]: > 100 µM
half-life at 20 µM [20]: 6 to 24 h
Ka [21]: 1.59 ×10⁷ /M/s
AUC [22]: 300 ng·h/mL
Activity [23]: inactive
Kd [24]: 0.0024 µM
dose excreted [25]: 40%
IC50 [26]: > 100 µM
Activity [27]: Active
IC50 [28]: 0.13 µM
AUC [29]: 77 µg·h/g
half-life at 20 µM [30]: 2 to 24 h
Activity [31]: Active
Ratio [32]: <2
Activity [33]: Active
half-life at 50 µM [34]: > 2 h
IC50 [35]: 0.01 to 0.025 µM
Activity [36]: Active
